{
  "source": "patent US12630536B2",
  "about": "“Cyanotriazine derivative, preparation method therefor, and application thereof” (Chengdu Fanxi Biopharma Co., LTD., priority 2020, dated 2026)",
  "key": {"[1]": {"test_system": "TR beta-UAS-bla HEK 293T Cells", "experiment": "TR cell-based agonist detection, β-lactamase reporter (LiveBLAzer FRET B/G), TR beta", "procedure": "(§1) A method for testing a THR-α/β activation activity of a compound by an in-vitro cell level was as follows.\n(§2) Compounds were transferred to a 384-well plate by an ECHO liquid workstation, and each compound was diluted by 3 times with 10 gradient concentrations, which was in triplicate. 1.5×10^4 DMEM-cultured cells (TR beta-UAS-bla HEK 293T Cells) or 1.0×10^4 TR alpha-UAS-bla HEK 293T Cells were placed in the 384-well plate. HEK 293T-TR beta was incubated in an incubator for 16 hours, and HEK 293T-TR alpha was incubated in an incubator for 24 hours. A LiveBLAzer™-FRET B/G (CCF4-AM) substrate was added into the cell plate to detect expression of β-lactamase in cells, and under excitation of 409 nm, a product produced fluorescence with a wavelength of 447 nm. When the β-lactamase was not expressed, under excitation of 409 nm, fluorescence with a wavelength of 520 nm was directly produced through FRET. Combination between the compound and the protein was determined by detecting a ratio of the two kinds of fluorescence (blue/green, 460 nm/530 nm), thus calculating EC50 of the compound. […] Calculation of a factor Z (greater than 0.5) would be used for monitoring a stability of each experiment."}, "[2]": {"test_system": "golden hamsters fed with high-fat feedstuffs (hyperlipidemia model)", "experiment": "In-vivo pharmacodynamic test, high-fat feed hyperlipidemia model", "settings": "oral once per day, 4 weeks", "procedure": "Administration mode: oral administration was carried out once per day with a time interval of 24 hours for 4 consecutive weeks. During the experiment, the animals were weighed twice per week, and a remaining amount and an adding amount of the feedstuffs were recorded before each blood sampling detection for calculating a food intake of each group of animals during administration.\nThe food utilization rate represents a weight gain in gram of an animal taking per 100 g of feedstuffs, so that food utilization rate=weight gain (g)/food intake (100 g)×100%."}, "[3]": {"test_system": "TR alpha-UAS-bla HEK 293T Cells", "experiment": "TR cell-based agonist detection, β-lactamase reporter (LiveBLAzer FRET B/G), TR alpha", "settings": "Homo sapiens", "procedure": "as §1, §2"}},
  "data": [
    {"smiles": "CC(C)c1cc(Oc2c(Cl)cc(-n3nc(C#N)c(=O)[nH]c3=O)cc2Cl)n[nH]c1=O", "note": "[MGL3196, reference compound]", "values": [
      {"measurement": "Emax", "setting": "[1]; Homo sapiens, HEK-293T, 16 h, TR_cell-based agonist, TR_β, read-out: Maximum activity ratio (A460/A530)", "result": 37.7, "unit": "%"},
      {"measurement": "EC50", "setting": "[1]; Homo sapiens, Detection of TR_cell-based agonist, HEK 293T-TR beta, 16 hours, read-out: TR_β_EC50", "result": 1050, "unit": "nM"},
      {"measurement": "α/β", "setting": "[1]; TR_cell-based agonist, ratio TR_α EC50 / TR_β EC50", "result": 2.62},
      {"measurement": "food utilization rate (weight gain (g)/food intake (100 g)×100%)", "setting": "[2]", "result": "increased to some extent"},
      {"measurement": "Emax", "setting": "[3]; HEK-293T, 24 h, TR_cell-based agonist, TR_α, read-out: Maximum activity ratio", "result": 134, "unit": "%"},
      {"measurement": "EC50", "setting": "[3]; Detection of TR_cell-based agonist, HEK 293T-TR alpha, 24 hours, read-out: TR_α_EC50", "result": 2770, "unit": "nM"}
    ]}
  ]
}
